Patent publication US20240140947A1, “COMPOUND FOR THE TREATMENT OF CANCER” (priority 2022, published 2024)
Where two headings read alike, the source gives them in different places.

Key:
NCIH358 = test: Cell proliferation assay (CYQUANT, 7 days), NCIH358; type: cell-based; details: Homo sapiens, NCI-H358, 168 h, read-out: IC50 ± SEM, proliferation inhibition
Protocol: (§1) Cellular CDK activity of Compound 1 and PF-06873600 were assessed in human CCNE1-amplified ovarian cancer cell line model OVCAR3 and human ER+ breast cancer cell line model MCF7 cells. […] OVCAR3 cells were treated overnight with 1 mM hydroxyurea to enrich for G1/S phase cells prior to treatment with inhibitors. Functional effects were measured in a 7-day anti-proliferation assay in one human ovarian cancer (OVCAR3), two human ER+ breast cancer (MCF7 and T47D) and three human non-small cell lung cancer (NCIH2087, NCIH358 and A549) cell line models.
(§2) OVCAR3, MCF7, T47D, HCC1428, NCIH2087, NCIH358 or A549cells were seeded 1-3000 cells/well in 96-well plates in growth media containing 10% FBS and cultured overnight at 37° C. 5% CO2. The following day, compounds were serially diluted from a 10 mM top dose for an 11-point 3-fold dilution curve in DMSO. […] CYQUANT Direct Cell Proliferation Assay (Molecular Probes, Eugene, OR) was then performed following manufacturer recommendations to determine the relative viable cell numbers on the Perkin Elmer Envision 2104 Multi Label Reader at 508 nm excitation and 527 nm emission wavelengths. IC50 values were calculated by concentration-response curve fitting utilizing a four-parameter analytical method using GraphPad Prism software.

[1] = Mouse early toxicology screening (ETS) study; type: in vivo; details: for bone marrow histology: day 14, Compound 1 75 mg/kg BID, PF-06873600 150 mg/kg BID, compared with vehicle
Protocol: Three groups of ten-week-old male CD1 mice were separately evaluated in early toxicology screening studies. Group 1 (n=5/group) were administered an oral dose of 25, 50 and 75 mg/kg BID of Compound 1 for 14 days. Group 2 (n=5/group) were administered an oral dose of 25, 75 and 150 mg/kg BID of PF-06873600 for 14 days. A vehicle control Group 3 (n=5/group) were also included where vehicle was administered BID for 14 days. Study evaluations included clinical observations, body weights, clinical pathology, toxicokinetics, gross pathology and microscopic pathology.
At the end of the ETS study on day 14, mice were sacrificed and images of the mouse bone marrow from each study group (n=5) were obtained.
The systemic exposure of Compound 1 and PF-06873600 were also compared. Exposures from mouse toxicity studies were determined using plasma samples collected as timepoints on day 8 or 14 of the study and were processed using protein precipitation with solvent mixture acetonitrile:methanol (1:1) containing internal standard verapamil followed by quantitation by LC-MS/MS against a standard curve prepared in blank plasma. The free plasma concentrations were calculated using the mouse plasma protein binding for compound 1 (fup=0.182) and PF-06873600 (fup=0.277). (FIG. 3)

[2] = Human plasma protein binding (equilibrium dialysis); type: in vitro ADME; details: 6-hour incubation, pH 7.4, read-out: fup: human plasma unbound fraction
Protocol: Frozen plasma in K3EDTA was purchased from BiolVT and Dulbecco's phosphate buffered saline (DPBS) and HCl were purchased from Sigma. Human plasma unbound fraction (fu r) was determined by equilibrium dialysis using an HTD 96 device (HTDialysis, LLC, Gales Ferry, CT) assembled with 12-14k MWCO membranes. Plasma was thawed and adjusted to pH 7.4 with 1 N HCl prior to use. Dialysis chambers were loaded with 150 μL plasma and 150 μL PBS in the donor and receiver chambers, respectively. The dialysis plate was sealed with a gas-permeable membrane and stored in a 37° C. water-jacked incubator maintained at 75% relative humidity and 5% CO2, on a 100 rpm plate shaker. After a 6-hour incubation, samples were matrix-matched and quench by protein precipitation, followed by LC-MS analysis. A set of satellite samples was included to measure stability after a 6-hour incubation. Incubations were conducted with 4 to 12 replicates. The fup was calculated by dividing the analyte-to-internal standard peak area ratio or analyte concentration in the buffer sample by the signal in the donor sample, corrected for any dilution factors.

[3] = system: phosphorylation of Rb protein at serines 807/811 in OVCAR3 cells; test: Phospho-Serine 807/811 Rb ELISA in OVCAR3 cells; type: cell-based; details: Homo sapiens, read-out: IC50 ± SEM, modulation of pRB Serine 807/811
Protocol: as §1
OVCAR3 or MCF7 cells were seeded at 25,000 cells/well in 100 μL growth media and allowed to adhere at 37° C. with 5% CO2 overnight. OVCAR3 cells were treated overnight with 1 mM hydroxyurea to enrich for G1/S phase cells prior to treatment with inhibitors. The following day, compounds were serially diluted from a 10 mM top dose for an 11-point 3-fold dilution curve in DMSO. Compound 1 and PF-06873600 were intermediately diluted 1:200 into growth media prior to diluting 1:5 on cells for final concentration 10 μM to 0.1 nM in 0.1% DMSO on cells. […] Plates were read in luminescence mode and IC50 values calculated.
The cellular activity of Compound 1 was evaluated in ER+, HER2− MCF7 cells and CCNE1-amplified ovarian carcinoma. Activity was determined by inhibition of phosphorylation of […]

OVCAR3 = test: Cell proliferation assay (CYQUANT, 7 days), OVCAR3; type: cell-based; details: Homo sapiens, OVCAR-3, 168 h, read-out: IC50 ± SEM, proliferation inhibition
Protocol: as §1, §2

A549 = test: Cell proliferation assay (CYQUANT, 7 days), A549; type: cell-based; details: Homo sapiens, read-out: IC50 ± SEM, proliferation inhibition
Protocol: as §1, §2

[4] = Human hepatocyte stability; type: in vitro ADME; details: hepatocytes, 0.5 million cells/mL, 37° C., 4 hours, read-out: CLint HHEP: CLint in human hepatocytes (in vitro)
Protocol: At various time points, samples were taken and analyzed by LC-MS/MS. CLint HHEP was calculated based on loss of parent compound over time using equations discussed in “A novel relay method for determining low-clearance values,” Drug Metab Dispos., 2012; 40(9):1860-5.

T47D parental = test: Cell proliferation assay (CYQUANT, 7 days), T47D parental; type: cell-based; details: Homo sapiens, 168 h, read-out: IC50 ± SEM, proliferation inhibition
Protocol: as §1, §2

SMILES | IC50 (NCIH358) [nM] | bone marrow histology [1] | fraction unbound at 6 h [2] | IC50 ([3]; OVCAR-3, 1 h) [nM] | IC50 (OVCAR3) [nM] | IC50 (A549; A549, 168 h) [nM] | hepatocyte CLint at 1 μM [4] [µL/min/1e6 cells] | IC50 (T47D parental; T47D) [nM] | IC50 (NCIH358; NCIH358, 7 days, mean) [nM] | neutropenia ([1]; male CD1 mice, oral 25, 50 and 75 mg/kg BID for 14 days) | IC50 ([3]; OVCAR-3, OVCAR3, mean, treated 1 h after overnight 1 mM hydroxyurea) [nM] | IC50 (OVCAR3; OVCAR3, 7 days, mean) [nM] | IC50 (A549; 168 h, A549, 7 days, mean) [nM] | IC50 (T47D parental; T47D parental, 7 days, mean) [nM]
C[C@@]1(O)CCC[C@H]1n1c(=O)c(C(F)F)cc2cnc(NC3CCN(S(C)(=O)=O)CC3)nc21 [Compound 2, reference compound] | 39 | vacuoles and large spaces between cells in the bone marrow image indicating cell death/apoptosis | 0.288 | 21.8 | 70 ± 11.7 | 189 | ~2 | 70.6 ± 14.1 | – | – | – | – | – | –
C[C@@]1(O)CCC[C@H]1n1c(=O)c(CC(F)F)cc2cnc(NC3CCN(S(N)(=O)=O)CC3)nc21 [Compound 1, 4-({6-(2,2-difluoroethyl)-8-[(1R,2R)-2-hydroxy-2-methylcyclopentyl]-7-oxo-7,8-dihydropyrido[2,3-d]pyrimidin-2-yl}amino)piperidine-1-sulfonamide] | – | lack of impact on the mouse bone marrow | 0.174 | – | – | – | ~2 | – | 21 ± 2.2 | no neutropenia was observed | 16.2 | 11.4 | 121 ± 10.1 | 17.6 ± 2.5
